Test results taken from ChEMBL document CHEMBL6120958, “A Highly Atom-Efficient Prodrug Approach to Generate Synergy between H2S and Nonsteroidal Anti-inflammatory Drugs and Improve Safety” (J Med Chem, 2024).
The source made the active and inactive calls. No cut-off for these calls is given here.

What was measured:
[1] = Cardiotoxicity against Sprague-Dawley rat assessed as myocardial fibrosis at 14.2 mg/kg, ip administered for 6 days by Masson staining analysis; type: toxicity, organism-based; conditions: in vivo, 144 h, time 6 day
[2] = Toxicity against collagen-induced arthritis Wistar rat model assessed as decrease in CAT activity in kidney at 33.7 umol/kg, po administered for 28 days; type: organism-based; conditions: in vivo, 672 h, dose 33.7 µmol/kg, time 28 day
[3] = Toxicity against C57BL/6J mouse assessed as AST level in serum at 506 umol/kg, ip measured after 24 hrs; type: organism-based; conditions: in vivo, dose 506 µmol/kg
[4] = Toxicity against Sprague-Dawley rat assessed as apoptosis in intestine at 10.5 mg/kg, po administered via gavage for 7 days and measured at 2 hrs post-last drug dosage by TUNEL immunofluorescence staining; type: organism-based; conditions: in vivo, 168 h, time 7 day
[5] = Cardiotoxicity against Sprague-Dawley rat assessed as SOD level in heart at 14.2 mg/kg, ip administered for 6 days; type: toxicity, organism-based; conditions: in vivo, 144 h, time 6 day
[6] = Toxicity against collagen-induced arthritis Wistar rat model assessed as increase in body weight at 16.8 umol/kg, po administered for 28 days; type: organism-based; conditions: in vivo, 672 h, at 16.8 µmol/kg, time 28 day
[7] = Cardiotoxicity against Sprague-Dawley rat assessed as striated muscle recovery with reduced vacuolation in heart at 14.2 mg/kg, ip administered for 6 days by Hematoxylin-Eosin staining analysis; type: toxicity, organism-based; conditions: in vivo, 144 h, time 6 day
[8] = Stability in Wistar rat assessed as parent drug level in blood at 10.5 mg/kg, po administered via gavage measured after 5 mins by LC-MS/MS analysis; type: ADME, organism-based; conditions: in vivo
[9] = Cardiotoxicity against Sprague-Dawley rat assessed as cTnI level in serum at 14.2 mg/kg, ip administered for 6 days (reference value: 1.9 +/-0.2 ng/ml); type: toxicity, organism-based; conditions: in vivo, 144 h, time 6 day
[10] = Cardiotoxicity against Sprague-Dawley rat assessed as increase in Bcl-2 level in heart at 14.2 mg/kg, ip administered for 6 days by immunofluorescence staining analysis; type: toxicity, organism-based; conditions: in vivo, 144 h, time 6 day
[11] = Toxicity against Sprague-Dawley rat assessed as decrease in crypt proliferation at 10.5 mg/kg, po administered via gavage for 7 days and measured at 2 hrs post-last drug dosage by Ki67 immunohistochemistry; type: organism-based; conditions: in vivo, 168 h, time 7 day
[12] = Drug metabolism in Wistar rat assessed as DCF level in blood at 10.5 mg/kg, po administered via gavage measured after 10 mins by LC-MS/MS analysis; type: ADME, organism-based; conditions: in vivo
Rattus norvegicus [13] = experiment: Antiinflammatory activity against collagen-induced arthritis Wistar rat model assessed as increase in IL-10 level in serum at 33.7 umol/kg, po administered for 28 days via gavage by ELISA; type: functional, organism-based; conditions: dose 33.7 µmol/kg, time 28.0 day
[14] = Toxicity against collagen-induced arthritis Wistar rat model assessed as glutathione level in liver at 33.7 umol/kg, po administered for 28 days; type: organism-based; conditions: in vivo, 672 h, dose 33.7 µmol/kg, time 28 day
[15] = Cardiotoxicity against Sprague-Dawley rat assessed as MDA level in heart at 14.2 mg/kg, ip administered for 6 days; type: toxicity, organism-based; conditions: in vivo, 144 h, time 6 day
[16] = Toxicity against C57BL/6J mouse assessed as ALT level in serum at 506 umol/kg, ip measured after 24 hrs; type: organism-based; conditions: in vivo, dose 506 µmol/kg
Rattus norvegicus [17] = experiment: Antiinflammatory activity against collagen-induced arthritis Wistar rat model assessed as reduction in IL-1 beta level in serum at 33.7 umol/kg, po administered for 28 days via gavage by ELISA; type: functional, organism-based; conditions: dose 33.7 µmol/kg, time 28.0 day
[18] = Stability of the compound in PBS at 500 uM measured for 3 months at pH 7.4 at -20 degC by HPLC analysis; type: physicochemical; conditions: buffer, pH 7.4, 2190 h
[19] = Oral bioavailability in Wistar rat at 10.5 mg/kg; type: ADME, organism-based; conditions: in vivo
[20] = Toxicity against Sprague-Dawley rat assessed as valeric acid and caproic acid in feces at 10.5 mg/kg, po administered via gavage for 7 days and measured at 2 hrs post-last drug dosage; type: organism-based; conditions: in vivo, 168 h, time 7 day
[21] = Stability of the compound in PBS at 500 uM measured within 144 hrs at pH 7.4 at 37 degC by HPLC analysis; type: physicochemical; conditions: buffer, pH 7.4, 144 h
[22] = Toxicity against Sprague-Dawley rat assessed as elevation of beneficial gut probiotics(Prevotellaceae and Erysipelotrichaceae) at 10.5 mg/kg, po administered via gavage for 7 days and measured at 2 hrs post-last drug dosage by Kruskal-Wallis H test; type: organism-based; conditions: in vivo, 168 h, time 7 day
[23] = Toxicity against Sprague-Dawley rat assessed as diarrhea at 10.5 mg/kg, po administered via gavage for 7 days; type: organism-based; conditions: in vivo, 168 h, time 7 day
Rattus norvegicus [24] = experiment: Antiinflammatory activity against collagen-induced arthritis Wistar rat model assessed as reduction in toe swelling at 33.7 umol/kg, po administered for 28 days via gavage; type: functional, organism-based; conditions: dose 33.7 µmol/kg, time 28.0 day
[25] = Toxicity against collagen-induced arthritis Wistar rat model assessed as increase in body weight at 33.7 umol/kg, po administered for 28 days; type: organism-based; conditions: in vivo, 672 h, at 33.7 µmol/kg, time 28 day
[26] = Cardiotoxicity against Sprague-Dawley rat assessed as decrease in cleaved caspase-3 level in heart at 14.2 mg/kg, ip administered for 6 days by immunofluorescence staining analysis; type: toxicity, organism-based; conditions: in vivo, 144 h, time 6 day
[27] = Toxicity against collagen-induced arthritis Wistar rat model assessed as decrease in SOD activity in liver at 33.7 umol/kg, po administered for 28 days; type: organism-based; conditions: in vivo, 672 h, dose 33.7 µmol/kg, time 28 day
[28] = Cardiotoxicity against Sprague-Dawley rat assessed as LDH level in serum at 14.2 mg/kg, ip administered for 6 days (reference value: 831.8 +/-23.1 U/L); type: toxicity, organism-based; conditions: in vivo, 144 h, time 6 day
[29] = Toxicity against Sprague-Dawley rat assessed as dysbiosis in gut microbiota at 10.5 mg/kg, po administered via gavage for 7 days and measured at 2 hrs post-last drug dosage by 16S rRNA amplicon sequencing based PCA analysis; type: organism-based; conditions: in vivo, 168 h, time 7 day
[30] = Toxicity against Sprague-Dawley rat assessed as potentially pathogenic bacteria (Clostridiaceae and Peptostreptococcaceae) level at 10.5 mg/kg, po administered via gavage for 7 days and measured at 2 hrs post-last drug dosage by Kruskal-Wallis H test; type: organism-based; conditions: in vivo, 168 h, time 7 day
[31] = Toxicity against collagen-induced arthritis Wistar rat model assessed as uric acid level in serum at 33.7 umol/kg, po administered for 28 days; type: organism-based; conditions: in vivo, 672 h, dose 33.7 µmol/kg, time 28 day
[32] = Toxicity against Sprague-Dawley rat assessed as preservation of integrity of jejunal vili without crypt damage and less glandular structure loss in colon at 10.5 mg/kg, po administered via gavage for 7 days and measured at 2 hrs post-last drug dosage by Hematoxylin-Eosin staining based analysis; type: organism-based; conditions: in vivo, 168 h, time 7 day
[33] = Toxicity against collagen-induced arthritis Wistar rat model assessed as gastric ulceration at 16.8 umol/kg, po administered for 28 days; type: organism-based; conditions: in vivo, 672 h, dose 16.8 µmol/kg, time 28 day
[34] = Stability of the compound in rat plasma assessed as half life by LC-MS/MS analysis; type: ADME, cell-free
[35] = Toxicity against collagen-induced arthritis Wistar rat model assessed as preserved mucosa integrity without gastrointestinal damage at 33.7 umol/kg, po administered for 28 days by Hematoxylin-Eosin staining based analysis; type: organism-based; conditions: in vivo, 672 h, dose 33.7 µmol/kg, time 28 day
[36] = molecular target: T1, Prostaglandin G/H synthase 1 (Ovis aries, UniProt P05979); experiment: Inhibition of ovine COX1 assessed as reduction in PGF2alpha production using arachidonic acid as substrate preincubated with enzyme for 10 mins followed by substrate addition and measured after 2 mins by ELISA
T1 sequence (P05979 whole entry): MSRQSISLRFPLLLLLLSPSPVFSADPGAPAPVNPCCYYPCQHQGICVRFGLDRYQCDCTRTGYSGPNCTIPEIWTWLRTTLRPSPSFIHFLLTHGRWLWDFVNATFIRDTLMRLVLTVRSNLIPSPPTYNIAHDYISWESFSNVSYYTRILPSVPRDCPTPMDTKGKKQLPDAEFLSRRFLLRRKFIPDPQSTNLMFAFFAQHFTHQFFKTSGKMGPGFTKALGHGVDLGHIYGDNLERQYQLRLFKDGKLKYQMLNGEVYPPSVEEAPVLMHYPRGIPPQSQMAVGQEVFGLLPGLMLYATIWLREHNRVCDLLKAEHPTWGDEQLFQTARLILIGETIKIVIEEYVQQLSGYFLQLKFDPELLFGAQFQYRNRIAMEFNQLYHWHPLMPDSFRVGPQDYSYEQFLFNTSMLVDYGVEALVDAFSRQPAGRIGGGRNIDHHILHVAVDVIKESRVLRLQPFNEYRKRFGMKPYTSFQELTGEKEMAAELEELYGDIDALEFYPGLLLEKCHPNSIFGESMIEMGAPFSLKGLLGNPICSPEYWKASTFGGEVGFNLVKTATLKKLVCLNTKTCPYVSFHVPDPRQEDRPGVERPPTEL

[37] = Toxicity against collagen-induced arthritis Wistar rat model assessed as AST level in serum at 33.7 umol/kg, po administered for 28 days; type: organism-based; conditions: in vivo, 672 h, dose 33.7 µmol/kg, time 28 day
[38] = Drug metabolism in Wistar rat assessed as DCF level in blood at 10.5 mg/kg, po administered via gavage measured after 5 mins by LC-MS/MS analysis; type: ADME, organism-based; conditions: in vivo
[39] = Toxicity against collagen-induced arthritis Wistar rat model assessed as creatinine level in serum at 33.7 umol/kg, po administered for 28 days; type: organism-based; conditions: in vivo, 672 h, dose 33.7 µmol/kg, time 28 day

Which Activity [1] does the source give for `O=C([S-])Cc1ccccc1Nc1c(Cl)cccc1Cl.[Na+]` here?
The Activity was “Non-toxic”.

What about the Activity [2] of the same compound?
Its Activity is “Non-toxic”.

What about the Activity [3] of the same compound?
Its Activity is 66.5 U/L.

What about the Activity [4] of the same compound?
Its Activity is “Non-toxic”.

What about the Activity [5] of the same compound?
The Activity was “Non-toxic”.

And the Activity [6]?
The Activity was 8%.

And the Activity [7]?
Its Activity is “Non-toxic”.

And the Stability [8]?
The Stability was 2330 ng/mL.

What about the Activity [9] of the same compound?
Its Activity is 2.7 ng/mL.

What about the Activity [10] of the same compound?
Its Activity is “Non-toxic”.

What about the Activity [11] of the same compound?
Its Activity is “Non-toxic”.

And the Drug metabolism [12]?
The Drug metabolism was 9755 ng/mL.

And the Activity (Rattus norvegicus [13])?
The Activity was “Active”.

And the Activity [14]?
The Activity was 1.2 µg/mg.

What about the Activity [15] of the same compound?
The Activity was “Non-toxic”.

And the Activity [16]?
The Activity was 45.9 U/L.

What about the Activity (Rattus norvegicus [17]) of the same compound?
Its Activity is “Active”.

What about the Stability [18] of the same compound?
Its Stability is “Stable”.

What about the bioavailability [19] of the same compound?
Its bioavailability is 80%.

What about the Activity [20] of the same compound?
Its Activity is “Non-toxic”.

And the Stability [21]?
The Stability was “Stable”.

What about the Activity [22] of the same compound?
Its Activity is “Non-toxic”.

What about the Activity [23] of the same compound?
The Activity was “Non-toxic”.

And the Activity (Rattus norvegicus [24])?
The Activity was “Active”.

What about the Activity [25] of the same compound?
Its Activity is 8%.

What about the Activity [26] of the same compound?
The Activity was “Non-toxic”.

And the Activity [27]?
The Activity was “Non-toxic”.

What about the Activity [28] of the same compound?
The Activity was 1165 U/L.

And the Activity [29]?
Its Activity is “Non-toxic”.

And the Activity [30]?
Its Activity is “Non-toxic”.

And the Activity [31]?
Its Activity is 123.9 µmol/L.

What about the Activity [32] of the same compound?
The Activity was “Non-toxic”.

What about the Activity [33] of the same compound?
Its Activity is “Non-toxic”.

What about the half-life [34] of the same compound?
Its half-life is 1.45 h.

What about the Activity [35] of the same compound?
Its Activity is “Non-toxic”.

What about the IC50 [36] of the same compound?
The IC50 was 35.9 nM.

What about the Activity [37] of the same compound?
The Activity was 50.2 U/L.

What about the Drug metabolism [38] of the same compound?
Its Drug metabolism is 942.7 ng/mL.

What about the Activity [39] of the same compound?
Its Activity is 313.9 µmol/L.
